Measured values: patent publication US20260138976A1 (Hoffmann-La Roche Inc., priority 2022, published 2026)

What was measured:
[1] = target: T1, DGKα (hDGKalpha(1-735)-N-His) (Homo sapiens, UniProt P23743); assay: In vitro DGK inhibition assay, DGKalpha ADP Glo (in house); format: biochemical; settings: 4 nM DGKα, 25 μM ATP, 125 uM DLG in liposomes, 1 hour reaction
T1 construct: hDGKalpha(1-735)-N-His; His (N); made in house; host or cells: Sf21 insect cells (baculovirus)
Procedure, shortened: (§1)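 ADP-Glo luminescence measured ADP formed over 1 h by Sf21-expressed full-length human enzymes: DGKα at 4 nM with 25 µM ATP, DGKζ at 2 nM with 50 µM ATP, both on 125 µM DLG in PS/PC liposomes. Dose–response used 11 threefold dilutions at 2% final DMSO.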

[2] = target: T2, DGKζ (hDGKzeta(1-928)-N-His) (Homo sapiens, UniProt Q13574); assay: In vitro DGK inhibition assay, DGKzeta ADP Glo (in house); format: biochemical; settings: 2 nM DGKζ, 50 μM ATP, 125 uM DLG in liposomes, 1 hour reaction
T2 construct: hDGKzeta(1-928)-N-His; His (N); made in house; host or cells: Sf21 insect cells (baculovirus)
Procedure, shortened: as §1

[3] = tested on: primary human T-cells; assay: Proliferation assay (5 days, CellTiter-Glo, CD3-stimulated T-cells); format: cell-based; settings: for Emax proliferation (% activation): CD3 condition, normalised to DMSO (neutral) and 20 μM reference compound A1 = 100%; for EC50: Homo sapiens, T-cell, 120 h, CD3-stimulated primary human T-cells, 5 days, CellTiter-Glo, fitted sigmoidal curve, read-out: Tcell Proliferation CD3 EC50
Procedure, shortened: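 Proliferation read-out: ATP luminescence (CellTiter-Glo 2.0) at day 5 in expanded primary human T-cells on CD3 antibody-coated plates, with PBS-only plates as a counter screen. Compounds in 5–6 pt series (factor 3.333, top 20 or 10 μM final). Values are normalized to DMSO (neutral) and 20 μM reference A1 (100%), from sigmoidal fits.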

T1 sequence (P23743 whole entry): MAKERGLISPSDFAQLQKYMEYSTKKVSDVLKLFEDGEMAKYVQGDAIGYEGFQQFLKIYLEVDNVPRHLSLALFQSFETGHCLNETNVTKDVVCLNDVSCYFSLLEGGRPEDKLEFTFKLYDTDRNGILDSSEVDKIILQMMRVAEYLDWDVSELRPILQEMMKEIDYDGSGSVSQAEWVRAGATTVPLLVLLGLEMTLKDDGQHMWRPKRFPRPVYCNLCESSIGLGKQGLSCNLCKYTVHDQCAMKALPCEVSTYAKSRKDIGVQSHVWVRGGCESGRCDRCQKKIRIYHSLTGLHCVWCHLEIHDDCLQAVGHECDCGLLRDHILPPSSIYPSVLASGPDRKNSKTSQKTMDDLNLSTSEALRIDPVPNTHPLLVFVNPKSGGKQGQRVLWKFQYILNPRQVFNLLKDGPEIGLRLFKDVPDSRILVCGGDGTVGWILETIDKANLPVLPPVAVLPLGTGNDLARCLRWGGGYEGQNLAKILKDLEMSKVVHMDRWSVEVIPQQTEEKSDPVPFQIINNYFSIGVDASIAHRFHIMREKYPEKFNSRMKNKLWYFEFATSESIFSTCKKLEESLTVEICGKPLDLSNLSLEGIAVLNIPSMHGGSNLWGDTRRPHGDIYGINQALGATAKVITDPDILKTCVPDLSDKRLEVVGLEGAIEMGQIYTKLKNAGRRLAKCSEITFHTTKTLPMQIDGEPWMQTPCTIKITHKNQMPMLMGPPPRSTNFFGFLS
T2 sequence (Q13574 whole entry): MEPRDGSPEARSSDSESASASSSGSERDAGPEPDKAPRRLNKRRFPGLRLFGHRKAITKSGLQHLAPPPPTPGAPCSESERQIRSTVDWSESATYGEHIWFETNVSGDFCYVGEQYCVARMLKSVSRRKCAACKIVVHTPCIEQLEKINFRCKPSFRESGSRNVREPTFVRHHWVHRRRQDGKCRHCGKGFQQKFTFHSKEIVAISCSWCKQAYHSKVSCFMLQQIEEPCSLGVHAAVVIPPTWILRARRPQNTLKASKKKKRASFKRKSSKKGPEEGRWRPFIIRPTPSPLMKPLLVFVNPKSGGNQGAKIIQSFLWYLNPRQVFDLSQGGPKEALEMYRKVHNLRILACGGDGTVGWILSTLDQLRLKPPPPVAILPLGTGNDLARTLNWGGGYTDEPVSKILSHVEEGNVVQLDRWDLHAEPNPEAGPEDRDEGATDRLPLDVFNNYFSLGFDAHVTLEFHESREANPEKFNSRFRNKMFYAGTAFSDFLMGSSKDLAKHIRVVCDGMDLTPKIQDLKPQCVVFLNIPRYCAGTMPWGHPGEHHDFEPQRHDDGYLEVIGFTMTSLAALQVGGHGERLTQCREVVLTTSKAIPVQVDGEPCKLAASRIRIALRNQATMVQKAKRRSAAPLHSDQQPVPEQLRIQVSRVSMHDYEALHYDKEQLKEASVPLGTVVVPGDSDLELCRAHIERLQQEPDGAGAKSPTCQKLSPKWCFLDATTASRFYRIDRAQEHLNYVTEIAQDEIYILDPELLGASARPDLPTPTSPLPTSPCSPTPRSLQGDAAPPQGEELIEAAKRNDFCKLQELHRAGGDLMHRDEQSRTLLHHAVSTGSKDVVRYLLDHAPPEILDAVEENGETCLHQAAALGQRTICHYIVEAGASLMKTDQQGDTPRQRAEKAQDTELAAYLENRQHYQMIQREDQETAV

Structure (SMILES)	IC50 [1] [nM]	IC50 [2] [nM]	Emax proliferation (% activation) [3] [% activation]	EC50 [3] [nM]
N[C@H]1CS(=O)(=O)c2ccc(-c3nnc(N4CCC(F)(F)CC4)o3)cc2N(Cc2ccc(-n3ccc(C(F)(F)F)n3)cc2)C1=O [Example 162, (3R)-3-amino-7-[5-(4,4-difluoro-1-piperidyl)-1,3,4-oxadiazol-2-yl]-1,1-dioxo-5-[[4-[3-(trifluoromethyl)pyrazol-1-yl]phenyl]methyl]-2,3-dihydro-1λ^6,5-benzothiazepin-4-one]	> 62500	1100	186	563
CC(C)(C#N)c1nnc(-c2ccc3c(c2)N(Cc2ccc(-c4cc(OC(F)(F)F)ccn4)cc2)C(=O)[C@@H](N)CS3(=O)=O)o1 [Example 126, 2-[5-[(3R)-3-amino-1,1,4-trioxo-5-[[4-[4-(trifluoromethoxy)-2-pyridyl]phenyl]methyl]-2,3-dihydro-1λ^6,5-benzothiazepin-7-yl]-1,3,4-oxadiazol-2-yl]-2-methyl-propanenitrile]	4380	541	212	2490
CC1(Nc2nnc(-c3cc4c(cc3F)S(=O)(=O)C[C@H](N)C(=O)N4Cc3ccc(-c4noc(C(F)(F)F)n4)cc3)o2)CC(F)(F)C1 [Example 3, (3R)-3-amino-7-[5-[(3,3-difluoro-1-methyl-cyclobutyl)amino]-1,3,4-oxadiazol-2-yl]-8-fluoro-1,1-dioxo-5-[[4-[5-(trifluoromethyl)-1,2,4-oxadiazol-3-yl]phenyl]methyl]-2,3-dihydro-1λ^6,5-benzothiazepin-4-one]	10300	1280	165	795
CC(C)(C#N)c1nnc(-c2ccc3c(c2)N(Cc2ccc(-c4ccc(OC(F)(F)C(F)(F)F)cn4)cc2)C(=O)[C@@H](N)CS3(=O)=O)o1 [Example 129, 2-[5-[(3R)-3-amino-1,1,4-trioxo-5-[[4-[5-(1,1,2,2,2-pentafluoroethoxy)-2-pyridyl]phenyl]methyl]-2,3-dihydro-1λ^6,5-benzothiazepin-7-yl]-1,3,4-oxadiazol-2-yl]-2-methyl-propanenitrile]	1680	948	119	22.8
N[C@H]1CS(=O)(=O)c2cc(F)c(-c3noc(C4(N)COC4)n3)cc2N(Cc2ccc(-c3ccc(C(F)(F)F)cn3)cc2)C1=O [Example 10, (3R)-3-amino-7-[5-(3-aminooxetan-3-yl)-1,2,4-oxadiazol-3-yl]-8-fluoro-1,1-dioxo-5-[[4-[5-(trifluoromethyl)-2-pyridyl]phenyl]methyl]-2,3-dihydro-1λ^6,5-benzothiazepin-4-one]	5160	282	133	1920
Cn1nc(C(F)(F)F)cc1-c1ccc(CN2C(=O)[C@@H](N)CS(=O)(=O)c3ccc(-c4nnc(C(C)(C)C)o4)cc32)cc1 [Example 92]	17500	1710	170	835
CC(C)(C#N)c1nnc(-c2ccc3c(c2)N(Cc2ccc(-c4ccc(C(F)(F)F)nc4)cc2)C(=O)[C@@H](N)CS3(=O)=O)o1 [Example 113, 2-[5-[(3R)-3-amino-1,1,4-trioxo-5-[[4-[6-(trifluoromethyl)-3-pyridyl]phenyl]methyl]-2,3-dihydro-1λ^6,5-benzothiazepin-7-yl]-1,3,4-oxadiazol-2-yl]-2-methyl-propanenitrile]	> 62500	1130	79	1060
N[C@H]1CS(=O)(=O)c2cc(F)c(-c3nnc(N4CCOC5(CC5)C4)o3)cc2N(Cc2ccc(-c3noc(C(F)(F)F)n3)cc2)C1=O [Example 4, (3R)-3-amino-8-fluoro-7-[5-(4-oxa-7-azaspiro[2.5]octan-7-yl)-1,3,4-oxadiazol-2-yl]-1,1-dioxo-5-[[4-[5-(trifluoromethyl)-1,2,4-oxadiazol-3-yl]phenyl]methyl]-2,3-dihydro-1λ^6,5-benzothiazepin-4-one]	3410	127	207	83.1
CC(C)(c1nnc(-c2ccc3c(c2)N(Cc2ccc(-c4ccc(OC(F)(F)F)cn4)cc2)C(=O)[C@@H](N)CS3(=O)=O)o1)C(F)(F)F [Example 165, (3R)-3-amino-1,1-dioxo-7-[5-(2,2,2-trifluoro-1,1-dimethyl-ethyl)-1,3,4-oxadiazol-2-yl]-5-[[4-[5-(trifluoromethoxy)-2-pyridyl]phenyl]methyl]-2,3-dihydro-1λ^6,5-benzothiazepin-4-one]	1140	2220	139	153
C[C@@](N)(c1nnc(-c2ccc3c(c2)N(Cc2ccc(-c4ccc(C(F)(F)F)cn4)cc2)C(=O)[C@@H](N)CS3(=O)=O)o1)C(F)(F)F [Example 154, (3R)-3-amino-7-[5-[(1R)-1-amino-2,2,2-trifluoro-1-methyl-ethyl]-1,3,4-oxadiazol-2-yl]-1,1-dioxo-5-[[4-[5-(trifluoromethyl)-2-pyridyl]phenyl]methyl]-2,3-dihydro-1λ^6,5-benzothiazepin-4-one]	23600	3100	151	984
Cc1cc(C)n(-c2ccc(CN3C(=O)[C@@H](N)CS(=O)(=O)c4ccc(-c5nnc(C(C)(C)C)o5)cc43)cc2)n1 [Example 22, (3R)-3-amino-7-(5-tert-butyl-1,3,4-oxadiazol-2-yl)-5-[[4-(3,5-dimethylpyrazol-1-yl)phenyl]methyl]-1,1-dioxo-2,3-dihydro-1λ^6,5-benzothiazepin-4-one]	1860	1090	69	3930
CC(O)(c1nnc(-c2ccc3c(c2)N(Cc2ccc(-c4noc(C5CC5)n4)cc2)C(=O)[C@@H](N)CS3(=O)=O)o1)C(F)(F)F (stereo partly drawn) [Example 170]	> 62500	2000	89	1010
NC(c1nnc(-c2ccc3c(c2)N(Cc2ccc(-c4noc(C(F)(F)F)n4)cc2)C(=O)[C@@H](N)CS3(=O)=O)o1)C(F)(F)F (stereo partly drawn) [Example 94]	> 60000	9190	42	> 10000
N[C@H]1CS(=O)(=O)c2cc(F)c(-c3noc(N4CCOC(F)(F)C4)n3)cc2N(Cc2ccc(-c3ccc(C(F)(F)F)cc3)nc2)C1=O [Example 13, (3R)-3-amino-7-[5-(2,2-difluoromorpholin-4-yl)-1,2,4-oxadiazol-3-yl]-8-fluoro-1,1-dioxo-5-[[6-[4-(trifluoromethyl)phenyl]-3-pyridyl]methyl]-2,3-dihydro-1λ^6,5-benzothiazepin-4-one]	> 62500	769	84	1080
N[C@H]1CS(=O)(=O)c2cc(F)c(-c3noc(C4(N)COC4)n3)cc2N(Cc2ccc(-c3noc(C(F)(F)F)n3)cc2)C1=O [Example 9, (3R)-3-amino-7-[5-(3-aminooxetan-3-yl)-1,2,4-oxadiazol-3-yl]-8-fluoro-1,1-dioxo-5-[[4-[5-(trifluoromethyl)-1,2,4-oxadiazol-3-yl]phenyl]methyl]-2,3-dihydro-1λ^6,5-benzothiazepin-4-one]	3290	468	163	506
COc1ccc(-c2ccc(CN3C(=O)[C@@H](N)CS(=O)(=O)c4ccc(-c5nnc(C6(F)CCCN(C)C6)o5)cc43)cc2)cc1 (stereo partly drawn) [Example 50, (3R)-3-amino-7-[5-(3-fluoro-1-methyl-3-piperidyl)-1,3,4-oxadiazol-2-yl]-5-[[4-(4-methoxyphenyl)phenyl]methyl]-1,1-dioxo-2,3-dihydro-1λ^6,5-benzothiazepin-4-one]	3380	851	219	1040
CC(C)(CC#N)c1nnc(-c2ccc3c(c2)N(Cc2ccc(-c4ccc(OC(F)(F)F)cn4)cc2)C(=O)[C@@H](N)CS3(=O)=O)o1 [Example 175, 3-[5-[(3R)-3-amino-1,1,4-trioxo-5-[[4-[5-(trifluoromethoxy)-2-pyridyl]phenyl]methyl]-2,3-dihydro-1λ^6,5-benzothiazepin-7-yl]-1,3,4-oxadiazol-2-yl]-3-methyl-butanenitrile]	961	734	105	121
CCOC(F)(c1nnc(-c2ccc3c(c2)N(Cc2ccc(-c4noc(C(F)(F)F)n4)cc2)C(=O)[C@@H](N)CS3(=O)=O)o1)C(F)(F)F (stereo partly drawn) [Example 64, (3R)-3-amino-7-[5-(1-ethoxy-1,2,2,2-tetrafluoro-ethyl)-1,3,4-oxadiazol-2-yl]-1,1-dioxo-5-[[4-[5-(trifluoromethyl)-1,2,4-oxadiazol-3-yl]phenyl]methyl]-2,3-dihydro-1λ^6,5-benzothiazepin-4-one]	1960	2790	132	20.8
